Columns and labels:
Assay type in all cases: physicochemical
[1] = Hygroscopicity test by dynamic moisture sorption (DVS); details: for adsorbed moisture: 80% RH, 25° C., DVS
Method: DVS analysis: all dynamic moisture sorption analysis […] of this experiment were determined by DVS advantage model sorption instrument, British SMS company, relative humidity range: 0-95%, temperature: 25° C. Commercially available paeoniflorin (Aladdin Company, batch number K2011169, purity ≥98%) was used as the amorphous powder, and its X-ray powder diffraction comparison diagram with the crystal form A of the present invention is shown in FIG. 6, and the hygroscopicity analysis comparison diagram of paeoniflorin and the crystal form A of the present invention is shown in FIG. 7. […] The hygroscopicity of crystal form B was analyzed using DVS advantage adsorption instrument of SMS company in the UK, the amorphous form adsorbed 11.1% of water at 80% RH, showing hygroscopicity; Paeoniflorin crystal form B of the present invention adsorbed 2.22% of water at 80% RH, but its hygroscopicity was obviously different from that of crystal form A.

[2] = Solubility in water
Method: The crystal form A has good water solubility, the solubility in water is more than 20 mg/mL, and the crystal form A is easy to dissolve.

[3] = Thermal stability by TG and DSC
Method: DSC analysis: the method adopts a DSC 8500 model differential scanning calorimeter of PerkinElmer company, US. for detection, the atmosphere is nitrogen, and the heating speed is 10° C./min.
TG analysis: the method adopts a thermogravimetric analyzer Netzsch TG 209F3 model of German […] company, temperature range: 30-400° C., scan rate: 10° C./min, purge gas: 25 mL/min.

[4] = Accelerated stability in a stability box (40° C./75% RH); details: 15 days acceleration

| adsorbed moisture [1] [%] | solubility [2] [mg/mL] | adsorbed moisture ([1]; listed as paeoniflorin monohydrate crystal form A) [%] | hygroscopicity (qualitative) ([1]; no wet agglomeration, powder has good fluidity) | phase transition and weight loss temperatures [3] | Structure (SMILES) | physical stability (conversion to amorphous or other forms) [4] |
| --- | --- | --- | --- | --- | --- | --- |
| 2.22 |  |  |  |  | CC12CC3(O)OC(O1)C1(COC(=O)c4ccccc4)C3CC21OC1OC(CO)C(O)C(O)C1O (stereo not shown) [Paeoniflorin crystal form B] |  |
| 11.1 |  |  |  |  | CC12CC3(O)OC(O1)C1(COC(=O)c4ccccc4)C3CC21OC1OC(CO)C(O)C(O)C1O (stereo not shown) [amorphous form, reference compound] |  |
|  | > 20 | 0.3 | small hygroscopicity | above 100 °C | CC12CC3(O)OC(O1)C1(COC(=O)c4ccccc4)C3CC21OC1OC(CO)C(O)C(O)C1O (stereo not shown) [crystal form A] | did not convert to amorphous or other forms |

Source: patent US20250340581A1, “PAEONIFLORIN MONOHYDRATE CRYSTAL FORM A, PREPARATION METHOD THEREFOR, AND USE THEREOF” (SHANGHAI INSTITUTE OF MATERIA MEDICA.CHINESE ACADEMY OF …, priority 2023, published 2025)
